Laboratory results: patent US4317815A, “LH-RH Antagonists” (priority 1979, dated 1982)
*1 amine or outer side, *2 acyl side, *3 side chain or, on linkers, in order; H or OH if unused. Where a SMILES comes first, the peptide text is derived from it. [ ]: non-standard residue; d: D form. dPhe(4-Br) = N[C@H](Cc1ccc(Br)cc1)C(=O)O; dPhe(4-Cl) = N[C@H](Cc1ccc(Cl)cc1)C(=O)O; dPhe(4-F) = N[C@H](Cc1ccc(F)cc1)C(=O)O; Suc = O=C(CCC(=O)[*:2])[*:1]

Tested on: mature female rats
Assay: Antiovulatory activity (blockade of ovulation) in proestrus female rats, test of de la Cruz et al.
Format: in vivo, rat
Conditions: 12 noon of proestrus
Method: The analogs are administered in 20% propylene glycol in physiologic saline (see Table I) or as a suspension in corn oil (see Table II) at 12 noon of the day of proestrus. On the following day, the rats are sacrificed, their fallopian tubes and uteri flushed with saline and the washed examined for ova.
The test results for several analogs are given in Table I. In Table II, a comparison, between the compound of formula I in which X is acetyl, R^1 is D-Phe, R^2 is D-p-Cl-Phe, R^3 is D-Trp, R^4 is D-Trp and R^5 is Gly, the title compound of Example 7, and the compound of the prior art, [Ac-D-Phe^1, D-Phe^2, D-Trp^3,6 ]-LH-RH, noted hereinbefore, is shown. As noted above, a different carrier is used for administering the compounds in Table I than in Table II.

[1] = Table I, dose 0.25 mg, in 20% propylene glycol in physiologic saline, ova examined the following day
[2] = Table I, dose 0.062 mg, in 20% propylene glycol in physiologic saline
[3] = Table I, dose 0.125 mg, in 20% propylene glycol in physiologic saline
[4] = Table I, dose 0.015 mg, in 20% propylene glycol in physiologic saline

For `CC(C)C[C@H](NC(=O)[C@@H](Cc1ccccc1)NC(=O)[C@H](Cc1ccc(O)cc1)NC(=O)[C@H](CO)NC(=O)[C@@H](Cc1c[nH]c2ccccc12)NC(=O)[C@@H](Cc1ccc(F)cc1)NC(=O)[C@H](N)Cc1ccccc1)C(=O)N[C@@H](CCCNC(=N)N)C(=O)N1CCC[C@H]1C(=O)NCC(N)=O` [D-Phenylalanyl-D-p-fluorophenylalanyl-D-tryptophyl-L-seryl-L-tyrosyl-D-phenylalanyl-L-leucyl-L-arginyl-L-prolyl-glycinamide] (H-[dF][dPhe(4-F)][dW]SY[dF]LRPG-NH2), the “% Blockade of Ovulation” value [1] was 10%.
In the case of `CC(=O)N[C@H](Cc1ccccc1)C(=O)N[C@H](Cc1ccc(Cl)cc1)C(=O)N[C@H](Cc1c[nH]c2ccccc12)C(=O)N[C@@H](CO)C(=O)N[C@@H](Cc1ccc(O)cc1)C(=O)N[C@H](Cc1c[nH]c2ccccc12)C(=O)N[C@@H](CC(C)C)C(=O)N[C@@H](CCCNC(=N)N)C(=O)N1CCC[C@H]1C(=O)NCC(N)=O` [Example 7, N-Acetyl-D-phenylalanyl-D-p-chlorophenylalanyl-D-tryptophyl-L-seryl-L-tyrosyl-D-tryptophyl-L-leucyl-L-arginyl-L-prolyl-glycinamide] (Ac-[dF][dPhe(4-Cl)][dW]SY[dW]LRPG-NH2), the “% Blockade of Ovulation” value (Table I, dose 0.031 mg, in 20% propylene glycol in physiologic saline) is reported as 64%, the “% Blockade of Ovulation” value [2] is reported as 100% and the “% Blockade of Ovulation” value (Table II, dose 15 mcg, suspension in corn oil) is reported as 100%. The “% Blockade of Ovulation” value (Table II, dose 31 mcg, suspension in corn oil) was 100%.
In the case of `CC(C)C[C@H](NC(=O)[C@@H](Cc1ccccc1)NC(=O)[C@H](Cc1ccc(O)cc1)NC(=O)[C@H](CO)NC(=O)[C@@H](Cc1c[nH]c2ccccc12)NC(=O)[C@@H](Cc1ccc(Br)cc1)NC(=O)[C@H](N)Cc1ccccc1)C(=O)N[C@@H](CCCNC(=N)N)C(=O)N1CCC[C@H]1C(=O)NCC(N)=O` [Example 8, D-Phenylalanyl-D-p-bromophenylalanyl-D-tryptophyl-L-seryl-L-tyrosyl-D-phenylalanyl-L-leucyl-L-arginyl-L-prolyl-glycinamide] (H-[dF][dPhe(4-Br)][dW]SY[dF]LRPG-NH2), the “% Blockade of Ovulation” value [1] is reported as 50%.
In the case of `CC(C)C[C@H](NC(=O)[C@@H](Cc1ccccc1)NC(=O)[C@H](Cc1ccc(O)cc1)NC(=O)[C@H](CO)NC(=O)[C@@H](Cc1c[nH]c2ccccc12)NC(=O)[C@@H](Cc1ccc(Cl)cc1)NC(=O)[C@H](N)Cc1ccccc1)C(=O)N[C@@H](CCCNC(=N)N)C(=O)N1CCC[C@H]1C(=O)NCC(N)=O` [Example 9, D-Phenylalanyl-D-p-chlorophenylalanyl-D-tryptophyl-L-seryl-L-tyrosyl-D-phenylalanyl-L-leucyl-L-arginyl-L-prolyl-glycinamide] (H-[dF][dPhe(4-Cl)][dW]SY[dF]LRPG-NH2), the “% Blockade of Ovulation” value [3] is reported as 11% and the “% Blockade of Ovulation” value [1] is reported as 82%.
In the case of `CC(C)C[C@H](NC(=O)[C@@H](Cc1ccccc1)NC(=O)[C@H](Cc1ccc(O)cc1)NC(=O)[C@H](CO)NC(=O)[C@@H](Cc1c[nH]c2ccccc12)NC(=O)[C@@H](Cc1ccc(Cl)cc1)NC(=O)[C@@H](Cc1ccccc1)NC(=O)CCC(=O)O)C(=O)N[C@@H](CCCNC(=N)N)C(=O)N1CCC[C@H]1C(=O)NCC(N)=O` [Example 10, N-Succinyl-D-phenylalanyl-D-p-chlorophenylalanyl-D-tryptophyl-L-seryl-L-tyrosyl-D-phenylalanyl-L-leucyl-L-arginyl-l-prolyl-glycinamide] (Suc-[dF][dPhe(4-Cl)][dW]SY[dF]LRPG-NH2), the “% Blockade of Ovulation” value [2] is reported as 50% and the “% Blockade of Ovulation” value [3] is reported as 80%.
In the case of `CC(=O)N[C@H](Cc1ccc(Cl)cc1)C(=O)N[C@H](Cc1ccc(Cl)cc1)C(=O)N[C@H](Cc1c[nH]c2ccccc12)C(=O)N[C@@H](CO)C(=O)N[C@@H](Cc1ccc(O)cc1)C(=O)N[C@H](Cc1c[nH]c2ccccc12)C(=O)N[C@@H](CC(C)C)C(=O)N[C@@H](CCCNC(=N)N)C(=O)N1CCC[C@H]1C(=O)NCC(N)=O` [Example 14, N-Acetyl-D-p-chlorophenylalanyl-D-p-chlorophenylalanyl-D-tryptophyl-L-seryl-L-tyrosyl-D-tryptophyl-L-leucyl-L-arginyl-L-prolyl-glycinamide] (Ac-[dPhe(4-Cl)][dPhe(4-Cl)][dW]SY[dW]LRPG-NH2), the “% Blockade of Ovulation” value [4] is reported as 70%.
For `CC(=O)N[C@H](Cc1ccccc1)C(=O)N[C@H](Cc1ccc(Cl)cc1)C(=O)N[C@H](Cc1c[nH]c2ccccc12)C(=O)N[C@@H](CO)C(=O)N[C@@H](Cc1ccc(O)cc1)C(=O)N[C@H](Cc1c[nH]c2ccccc12)C(=O)N[C@@H](CC(C)C)C(=O)N[C@@H](CCCNC(=N)N)C(=O)N1CCC[C@H]1C(=O)N[C@H](C)C(N)=O` [Example 16, N-Acetyl-D-phenylalanyl-D-p-chlorophenylalanyl-D-tryptophyl-L-seryl-L-tyrosyl-D-tryptophyl-L-leucyl-L-arginyl-L-prolyl-D-alaninamide] (Ac-[dF][dPhe(4-Cl)][dW]SY[dW]LRP[dA]-NH2), the “% Blockade of Ovulation” value [4] was 100%.
For `CC(=O)N[C@H](Cc1ccccc1)C(=O)N[C@H](Cc1ccccc1)C(=O)N[C@H](Cc1c[nH]c2ccccc12)C(=O)N[C@@H](CO)C(=O)N[C@@H](Cc1ccc(O)cc1)C(=O)N[C@H](Cc1c[nH]c2ccccc12)C(=O)N[C@@H](CC(C)C)C(=O)N[C@@H](CCCNC(=N)N)C(=O)N1CCC[C@H]1C(=O)NCC(N)=O` [[Ac-D-Phe^1, D-Phe^2, D-Trp^3,6]-LH-RH, reference compound] (Ac-[dF][dF][dW]SY[dW]LRPG-NH2), the “% Blockade of Ovulation” value (Table II, dose 100 mcg, suspension in corn oil) was 40% and the “% Blockade of Ovulation” value (Table II, dose 250 mcg, suspension in corn oil) was 100%.
